The values below come from ChEMBL document CHEMBL1201862, “PubChem BioAssay data set” (2004).

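Interpolation was linear, between the two tested concentrations surrounding the appropriate level; five concentrations were tested over 48 hours in 96-well plates. GI50 = concentration required for 50% inhibition of growth.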 Active and inactive are the calls of the source. Cut-off read from the data, not from the text of the source: active = GI50 up to about 1.1 µM and inactive = higher.

Among the test systems are RPMI-8226; SK-OV-3; NCI-H522; HT-29; HOP-92; OVCAR-8; MCF7; UACC-257; DU-145; NCI-H23; U-251; SR; CAKI-1; SW-620; MDA-MB-231; 786-0; M14; OVCAR-4; COLO 205; A498.
Common to all, as to test: inhibition of tumour cell growth, NCI panel, 48 h

With `CN(C(=O)Nc1ccc(Cl)c(Cl)c1)C1CCCC[C@@H]1N1CCCC1` (some centres undefined), the GI50 in the test with RPMI-8226 is 24.7 µM (inactive); in the test with SK-OV-3, > 100 µM (inactive); in the test on NCI-H522 it was 41.7 µM (inactive); in the test with HT-29, 29.4 µM (inactive); in the test with HOP-92, 34.4 µM (inactive); in the test on OVCAR-8, 79.3 µM (inactive). The GI50 with MCF7 is 33.6 µM (inactive); with UACC-257, 18.8 µM (inactive); in the test on DU-145 it was 58.6 µM (inactive); in the test with NCI-H23, > 100 µM (inactive); with U-251 it was 53.7 µM (inactive); with SR, 21 µM (inactive). For the same compound, the GI50 is 70.6 µM (inactive) in the test with CAKI-1; 63.7 µM (inactive) with SW-620; 47.9 µM (inactive) in the test on MDA-MB-231; 48.6 µM (inactive) with 786-0; 19.1 µM (inactive) in the test with M14; 41.9 µM (inactive) in the test on OVCAR-4. Besides, the GI50 with COLO 205 was 18.1 µM (inactive); in the test with A498, 24.2 µM (inactive).
As to `COC(=O)C1=C(C(=O)OC)N(c2ccncc2)C(c2ccco2)=CC1c1ccccc1[N+](=O)[O-]` (centres undefined), the GI50 was 1.39 µM (inactive) in the test with RPMI-8226; 16.8 µM (inactive) in the test with SK-OV-3; 2.03 µM (inactive) in the test on NCI-H522; 1.99 µM (inactive) in the test with HT-29; 14.1 µM (inactive) in the test with HOP-92; 8.04 µM (inactive) with OVCAR-8. For the same compound, the GI50 with MCF7 was 1.87 µM (inactive); in the test on UACC-257 it was 2.02 µM (inactive); in the test with DU-145, 5.24 µM (inactive); with NCI-H23, 13.9 µM (inactive); in the test on U-251, 3.32 µM (inactive); in the test with SR it was 0.75 µM (active). The GI50 is 14.2 µM (inactive) with CAKI-1; 6.9 µM (inactive) with SW-620; 11.6 µM (inactive) with MDA-MB-231; 1.7 µM (inactive) with 786-0; 4.21 µM (inactive) with M14; 5.97 µM (inactive) with OVCAR-4. In addition, the GI50 is 4.75 µM (inactive) with COLO 205 and 5.24 µM (inactive) in the test with A498.
On to `O=C1C=C2C(=NC34CCCCC3C(c3ccccc3)C3=C(c5ccccc5CC3)N24)c2ccccc21` (centres undefined), for which the GI50 in the test on RPMI-8226, in the test with SK-OV-3, with NCI-H522, in the test with HT-29, in the test on HOP-92 and in the test on OVCAR-8 was > 10 µM (inactive) throughout. In addition, the GI50 in the test with MCF7 is > 10 µM (inactive); in the test on UACC-257, > 10 µM (inactive); in the test on DU-145 it was > 10 µM (inactive); in the test on NCI-H23, > 10 µM (inactive); in the test on U-251, > 10 µM (inactive); with SR, 8.22 µM (inactive). The GI50 in the test on CAKI-1, with SW-620, with MDA-MB-231, in the test with 786-0, in the test with M14 and in the test with OVCAR-4 was > 10 µM (inactive) throughout. For the same compound, the GI50 in the test on COLO 205 and with A498 was > 10 µM (inactive) in each case.
Consider `O=C(NCCc1n[nH]c2c1C(=O)C=C(Nc1ccccc1)C2=O)OCc1ccccc1`, for which the GI50 with RPMI-8226, in the test on SK-OV-3, in the test with NCI-H522, in the test on HT-29, with HOP-92 and in the test with OVCAR-8 was > 100 µM (inactive) throughout. In addition, the GI50 in the test on MCF7, in the test with UACC-257, in the test with DU-145, in the test on NCI-H23, with U-251 and with SR was > 100 µM (inactive) in each case. Further, the GI50 in the test with CAKI-1 is > 100 µM (inactive); with SW-620 it was > 100 µM (inactive); in the test on MDA-MB-231, > 100 µM (inactive); in the test on 786-0, 47.1 µM (inactive); in the test with M14, > 100 µM (inactive); in the test with OVCAR-4 it was 66.4 µM (inactive). The GI50 in the test with COLO 205 and with A498 was > 100 µM (inactive) each time.
`COc1ccc(-c2c(C#N)c(N)nc(Sc3ccccc3N)c2C#N)cc1`: the GI50 was > 75.5 µM (inactive) in the test on RPMI-8226; 9.53 µM (inactive) in the test on SK-OV-3; 10 µM (inactive) with NCI-H522; 7.69 µM (inactive) in the test with HT-29; 4.79 µM (inactive) with HOP-92; 8.11 µM (inactive) in the test with OVCAR-8. The GI50 is 14.6 µM (inactive) with MCF7; 39.3 µM (inactive) in the test with UACC-257; > 47.6 µM (inactive) in the test on DU-145; > 48.4 µM (inactive) in the test on NCI-H23; 13.4 µM (inactive) with U-251; 43.7 µM (inactive) in the test with SR. Moreover, the GI50 in the test with CAKI-1 was 8.36 µM (inactive); in the test with SW-620, > 90.6 µM (inactive); in the test on MDA-MB-231 it was 11.7 µM (inactive); with 786-0, 4.82 µM (inactive); in the test with M14 it was 27.9 µM (inactive); in the test on OVCAR-4, 13.6 µM (inactive). In addition, the GI50 is > 100 µM (inactive) in the test on COLO 205 and 4.73 µM (inactive) with A498.
As to `COc1cc(Br)c(CC2C3=C(CCN2C(=O)C2CCC2)CC2(CC3)OCCO2)cc1O` (centres undefined), the GI50 was 36.6 µM (inactive) in the test with RPMI-8226; 68.2 µM (inactive) in the test on SK-OV-3; 27.7 µM (inactive) in the test on NCI-H522; 24.2 µM (inactive) in the test on HT-29; 56.4 µM (inactive) in the test on HOP-92; > 100 µM (inactive) with OVCAR-8. Further, the GI50 in the test with MCF7 is 28.6 µM (inactive); in the test with UACC-257, 32.5 µM (inactive); in the test on DU-145 it was > 100 µM (inactive); with NCI-H23, 28.8 µM (inactive); with U-251 it was > 100 µM (inactive); with SR, 28.1 µM (inactive). Besides, the GI50 in the test with CAKI-1 is 68.4 µM (inactive); in the test on SW-620, 80.2 µM (inactive); with MDA-MB-231, 87.1 µM (inactive); in the test on 786-0, 89.9 µM (inactive); in the test on M14 it was 62.5 µM (inactive); in the test with OVCAR-4, 34.4 µM (inactive). Moreover, the figures for the GI50 with COLO 205 and with A498 were 18.2 µM (inactive) and 62.2 µM (inactive), respectively.
Take `N#Cc1cc2c(cc1C#N)SCCSCCCSCCS2`: the GI50 with RPMI-8226 was > 100 µM (inactive); in the test on SK-OV-3, 12 µM (inactive); in the test with NCI-H522, 25.8 µM (inactive); with HT-29 it was > 100 µM (inactive); in the test on HOP-92 it was 2.49 µM (inactive); with OVCAR-8, 12.2 µM (inactive). Also, the GI50 with MCF7 is 28.2 µM (inactive); with UACC-257, > 87.9 µM (inactive); with DU-145, 56.5 µM (inactive); in the test on NCI-H23 it was 16.1 µM (inactive); in the test on U-251, 5.32 µM (inactive); with SR it was 36.4 µM (inactive). Besides, the GI50 in the test on CAKI-1 was 22.8 µM (inactive); in the test with SW-620 it was 29.4 µM (inactive); in the test on MDA-MB-231 it was 10 µM (inactive); in the test with 786-0 it was 5.09 µM (inactive); in the test with M14, 38.3 µM (inactive); in the test with OVCAR-4 it was 8.93 µM (inactive). Besides, the GI50 in the test with COLO 205 is > 84.3 µM (inactive); with A498, 40.8 µM (inactive).
`O=C1/C(=C/C=C/c2ccccc2)CCC1CNc1ccc(Br)cc1` (centres undefined): the GI50 was 5.47 µM (inactive) with RPMI-8226; 88.1 µM (inactive) with SK-OV-3; 21.3 µM (inactive) with NCI-H522; > 100 µM (inactive) in the test with HT-29; > 100 µM (inactive) with HOP-92; > 100 µM (inactive) in the test on OVCAR-8. The GI50 in the test with MCF7 was 21 µM (inactive); in the test with UACC-257 it was > 100 µM (inactive); in the test with DU-145, 40.2 µM (inactive); in the test on NCI-H23 it was > 100 µM (inactive); in the test with U-251 it was > 100 µM (inactive); in the test on SR, 23.3 µM (inactive). In addition, the GI50 in the test with CAKI-1 is > 100 µM (inactive); with SW-620, 88.7 µM (inactive); in the test on MDA-MB-231, 23.1 µM (inactive); in the test with 786-0, 82.2 µM (inactive); with M14, 77.6 µM (inactive); in the test with OVCAR-4, 57.7 µM (inactive). The GI50 in the test on COLO 205 is 20.8 µM (inactive); with A498 it was 68.9 µM (inactive).
Regarding `O=C1/C(=C\c2ccc([N+](=O)[O-])o2)SC2NC(COc3ccc(Cl)cc3)=NN12` (centres undefined), the GI50 is 3.21 µM (inactive) with RPMI-8226; 24 µM (inactive) with SK-OV-3; 2.22 µM (inactive) with NCI-H522; 6.05 µM (inactive) with HT-29; 2.09 µM (inactive) with HOP-92; 3.18 µM (inactive) with OVCAR-8. For the same compound, the GI50 in the test on MCF7 was 2.12 µM (inactive); with UACC-257 it was 5.09 µM (inactive); with DU-145, 12.9 µM (inactive); in the test on NCI-H23, 10 µM (inactive); in the test with U-251, 19.3 µM (inactive); in the test with SR, 3.47 µM (inactive). Besides, the GI50 with CAKI-1 is 13.1 µM (inactive); with SW-620 it was 2.43 µM (inactive); in the test on MDA-MB-231, 3.31 µM (inactive); with 786-0, 3.4 µM (inactive); in the test on M14, 2.31 µM (inactive); in the test with OVCAR-4 it was 1.87 µM (inactive). Further, the GI50 was 3.37 µM (inactive) in the test with COLO 205 and 23.7 µM (inactive) in the test with A498.
As for `Nc1ncnc2c1ncn2[C@H]1C=C[C@@H](NO)C1`, the GI50 in the test on RPMI-8226, with SK-OV-3, in the test on NCI-H522, in the test on HOP-92, with OVCAR-8 and in the test with MCF7 was > 100 µM (inactive) each time. Besides, the GI50 with UACC-257, in the test on DU-145, with NCI-H23, in the test on U-251, in the test with SR and with CAKI-1 was > 100 µM (inactive) in each case. The GI50 in the test on SW-620, in the test with MDA-MB-231, in the test with 786-0, with M14, in the test on OVCAR-4 and in the test with COLO 205 was > 100 µM (inactive) each time. For the same compound, the GI50 in the test with A498 was > 100 µM (inactive).
